This is an account of results in the supplement of paper PMC3974653.

Counter-ions that a name gives are not always drawn. Bounds are passed on as bounds.

The assay concerns MTT (mouse pheochromocytoma). Description: IC50 of cell viability (ATP content). The conditions noted are these: (24 or 48 h). An outline of the steps:
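Library compounds were tested at 8 final concentrations (0.5 nM to 46 µM) on MTT mouse pheochromocytoma cells for 24 or 48 hrs, with readout by CellTiter-Glo ATP luminescence. Signals were normalised with positive-control wells at 100% and DMSO wells at 0%. IC50 values were obtained by a four-parameter logistic fit.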

As to `NNc1ccccc1` [PHENYLHYDRAZINE HYDROCHLORIDE], the “IC50 of cell viability” value is greater than 46 µM. Take `CCOC(=O)[C@H](CCc1ccccc1)NC(C)C(=O)N1CC2(CC1C(=O)O)SCCS2` (some centres not stated) [Spirapril]: the “IC50 of cell viability” value was greater than 46 µM. With `O=C(OOC(=O)c1ccccc1)c1ccccc1` [Benzoyl peroxide], the “IC50 of cell viability” value was greater than 46 µM. Turning to `O=C(O)CP(=O)(O)O` [Phosphonoacetic acid], the “IC50 of cell viability” value was greater than 46 µM.

As to `COc1ccc2cc(CCC(C)=O)ccc2c1` [Nabumetone], the “IC50 of cell viability” value is greater than 46 µM. `CCOC(=O)c1ccc(OCCN2C[C@H](O)[C@@H](O)[C@H](O)[C@H]2CO)cc1` [EMIGLITATE]: the “IC50 of cell viability” value was greater than 46 µM. With `CN(C1=CC=CC=C1)C(=O)C/2=C(O)/C3=C(C=CC=C3)N(C)C2=O` [Linomide], the “IC50 of cell viability” value is greater than 46 µM. Consider `C=C[C@@H]1CN2CC[C@H]1C[C@H]2[C@H](O)c1ccnc2ccccc12` [cinchonine], for which the “IC50 of cell viability” value is greater than 46 µM. To `COc1cc(CC(C)N)c(OC)cc1Br` (racemic) [(±)-2,5-Dimethoxy-4-bromoamphetamine hydrobromide] belongs greater than 46 µM. On to `O=C(NC(CO)C(O)c1ccc([N+](=O)[O-])cc1)C(Cl)Cl` (configuration not stated) [CHLORAMPHENICOL], for which the “IC50 of cell viability” value was greater than 46 µM. To `CC(=O)NC1[C@H]([C@H](O)[C@H](O)CO)OC(C(=O)O)=C[C@H]1NC(=N)N` (some centres not stated) [Zanamivir] belongs greater than 46 µM; to `C[C@H](N)[C@H](O)c1cccc(O)c1.O=C(O)[C@@H](O)[C@@H](O)C(=O)O.O=C(O)[C@@H](O)[C@@H](O)C(=O)O` [Metaraminol bitartrate], greater than 46 µM; to `CC(=O)SCC(CC(=O)c1ccc(C)cc1)C(=O)O` (configuration not stated) [ESONARIMOD], greater than 46 µM. Next, `CN1[C@@H](CC(=O)c2ccccc2)CCC[C@H]1C[C@H](O)c1ccccc1` [LOBELINE]: greater than 46 µM; `CN1CCC[C@@H]1CCO[C@](C)(c1ccccc1)c1ccc(Cl)cc1` [Clemastine fumarate]: greater than 46 µM; `NP(N)(=O)NC(=O)c1ccc(F)cc1` [Flurofamide]: greater than 46 µM. As for `C[C@@]12CC[C@H]3[C@@H](CC\C4=C\C(=O)CC[C@@]34C)[C@H]1CC[C@H]2C(=O)CO` [Deoxycorticosterone], the “IC50 of cell viability” value is greater than 46 µM. For `CNC(=O)Oc1ccc2c(c1)[C@]1(C)CCN(C)[C@@H]1N2C` [PHYSOSTIGMINE], the “IC50 of cell viability” value is greater than 46 µM.

On to `CNC1(C)C2CCC(C2)C1(C)C` (configuration not stated) [MECAMYLAMINE], for which the “IC50 of cell viability” value is greater than 46 µM. As to `CC\C1=C(/C)CN(C(=O)NCCC2=CC=C(C=C2)[S+]([O-])(=O)NC(=O)NC3CCC(C)CC3)C1=O` (configuration not stated) [Glimepiride], the “IC50 of cell viability” value was greater than 46 µM. Next, `CN1CCN([C@@H](c2ccccc2)c2ccc(Cl)cc2)CC1` [(1-[(4-Chlorophenyl)phenyl-methyl]-4-methylpiperazine)]: greater than 46 µM. With `CC(C)n1nc(-c2cc3cc(O)ccc3[nH]2)c2c(N)ncnc21` [pp242], the “IC50 of cell viability” value is greater than 46 µM. `O=C(O)CSCC(=O)NC1CCSC1=O` (configuration not stated) [Erdosteine]: the “IC50 of cell viability” value was greater than 46 µM. Regarding `CN1[C@@H]2CC[C@H]1CC(OC(c1ccccc1)c1ccccc1)C2.C[S+](=O)([O-])O` (some centres not stated) [Benztropine], the “IC50 of cell viability” value is greater than 46 µM.

As for `CC(C)Cc1ccc([C@@H](C)C(=O)NS(C)(=O)=O)cc1.NCCCC[C@H](N)C(=O)O` [REPARIXIN], the “IC50 of cell viability” value is greater than 46 µM.

In the case of `CC[C@@H]1/C=C(\C)C[C@H](C)C[C@H](OC)[C@H]2O[C@@](O)(C(=O)C(=O)N3CCCC[C@H]3C(=O)O[C@H](/C(C)=C/[C@@H]3CC[C@H](Cl)[C@H](OC)C3)[C@H](C)[C@@H](O)CC1=O)[C@H](C)C[C@@H]2OC` [PIMECROLIMUS], the “IC50 of cell viability” value is greater than 46 µM. Regarding `Cn1c(=O)c2c(ncn2CCO)n(C)c1=O` [7-(beta-HYDROXYETHYL)THEOPHYLLINE], the “IC50 of cell viability” value was greater than 46 µM. Regarding `C=Cc1ccccc1` [Styrene], the “IC50 of cell viability” value was greater than 46 µM.

For the molecule `Cc1cc(C(C)(C)CC(C)(C)C)ccc1OCCOCC[N+](C)(C)Cc1ccccc1` [Methylbenzethonium chloride], the “IC50 of cell viability” value was greater than 46 µM. Regarding `CN(C)C(=S)SC(=S)N(C)C` [TETRAMETHYLTHIURAM MONOSULFIDE], the “IC50 of cell viability” value is greater than 46 µM. To `CCN(CC)CCOC(=O)[C@@H](Cc1cccc2ccccc12)C[C@H]1CCCO1` [Nafronyl oxalate] belongs greater than 46 µM.

For `O=P(O)(O)OC[C@H]1O[C@](O)(COP(=O)(O)O)[C@@H](O)[C@@H]1O` [FOSFRUCTOSUM], the “IC50 of cell viability” value was greater than 46 µM. To `O.O.O=C([O-])[C@H](CC(=O)N1C[C@H]2CCCC[C@H]2C1)Cc1ccccc1.O=C([O-])[C@H](CC(=O)N1C[C@H]2CCCC[C@H]2C1)Cc1ccccc1.[Ca+2]` [MITIGLINIDE CALCIUM HYDRATE] belongs greater than 46 µM. As for `COC(=O)[C@@H](N)CCCNC(=N)N[N+](=O)[O-]` [N-NITRO-ARGININE METHYL ESTER], the “IC50 of cell viability” value was greater than 46 µM. As to `CC[C@H](NC(C)C)[C@H](O)c1ccc(O)c(O)c1.C[S+](=O)([O-])O` [Isoetharine mesylate salt], the “IC50 of cell viability” value is greater than 46 µM.

For `Cc1ccc2c(c1)[C@@H]1CN(C)CC[C@H]1N2` [DICARBINUM], the “IC50 of cell viability” value was greater than 46 µM.

`O=[N+]([O-])c1nccn1CO[C@@H](CO)[C@H](O)CO` [DORANIDAZOLE]: the “IC50 of cell viability” value was greater than 46 µM. Next, `CC(=O)Nc1ccc(OCCOCCOc2ccc(NC(C)=O)cc2)cc1` [Diamfenetida]: greater than 46 µM; `O=C(c1ccc(OCCN2CCCCC2)cc1)c1c(-c2ccc(O)cc2)sc2cc(O)ccc12` [Raloxifene hydrochloride]: greater than 46 µM.

In the case of `CN[C@@H](CC(C)C)C(=O)N[C@@H]1C(=O)N[C@H](CC(N)=O)C(=O)N[C@H]2C(=O)N[C@@H]3C(=O)N[C@H](C(=O)N[C@H](C(=O)O)c4cc(O)cc(O)c4-c4cc3ccc4O)[C@H](O)c3ccc(c(Cl)c3)Oc3cc2cc(c3O[C@@H]2O[C@@H](CO)[C@@H](O)[C@@H](O)[C@H]2O[C@H]2C[C@](C)(N)[C@H](O)[C@H](C)O2)Oc2ccc(cc2Cl)[C@@H]1O` [Vancomycin hydrochloride], the “IC50 of cell viability” value is greater than 46 µM. Regarding `Clc1ccc(Nc2nnc(Cc3ccncc3)c3ccccc23)cc1` [Vatalanib Dihydrochloride], the “IC50 of cell viability” value is greater than 46 µM. Next, `CCCCC[C@H](O)/C=C/[C@@H]1[C@@H](C/C=C\CCCC(=O)O)[C@@H](O)C[C@H]1O` [Dinoprost tromethamine]: greater than 46 µM. To `CC1=C(CC(=O)O)c2cc(F)ccc2/C1=C\c1ccc([S+](C)(=O)[O-])cc1` [Sulindac sulfone] belongs greater than 46 µM. Next, `CC(=O)C1CCC2C3CC\C4=C\C(=O)CCC4(C)C3CCC12C` (configuration not stated) [Progestin]: greater than 46 µM. In the case of `O=C(O)CC1=S=C(c2ccccc2)N=C1c1ccc(Cl)cc1` [Fentiazac], the “IC50 of cell viability” value is greater than 46 µM.

With `N[S+](=O)([O-])c1ccc(Cl)c([S+](N)(=O)[O-])c1` [Clofenamide], the “IC50 of cell viability” value is greater than 46 µM. Regarding `[NH2][Pt]1([NH2])[O]CC(=O)[O]1` [NEDAPLATIN], the “IC50 of cell viability” value was greater than 46 µM.

Turning to `CCOC(=O)C(CCc1ccccc1)NC(C)C(=O)N1C(C(=O)O)CC2CCCCC21` (configuration not stated) [TRANDOLAPRIL], the “IC50 of cell viability” value is greater than 46 µM. Next, `CC1CCC(C(C)C)C(O)C1` (configuration not stated) [MENTHOL]: greater than 46 µM.

With `CN1CC[C@@]23C4OC5=C(O)C=CC(=C25)C[C@@H]1C3\C=C/C4O` (some centres not stated) [Morphine], the “IC50 of cell viability” value was greater than 46 µM. Next, `COc1cc(/C=C/C(=O)O[C@H]2CC[C@]34C[C@]35CC[C@]3(C)[C@@H]([C@H](C)CCC=C(C)C)CC[C@@]3(C)C5CCC4C2(C)C)ccc1O` (some centres not stated) [GAMMA ORYZANOL]: greater than 46 µM; `O=C(O)Cc1ccc(OCCNC[C@H](O)c2ccccc2)cc1` [ZD 2079]: greater than 46 µM; `C[N@H+]1CC[C@@]23C4OC5=C2C(=CC=C5OC(C)=O)C[C@H]1[C@@H]3\C=C/[C@@H]4OC(C)=O` (some centres not stated) [DIAMORPHINE HYDROCHLORIDE]: greater than 46 µM. Turning to `CC1(C)CO[C@@H](CC(=O)O)CN1`, the “IC50 of cell viability” value is greater than 46 µM. `CC(=O)N[C@@H](CS)C(=O)O` [N-acetylcysteine]: the “IC50 of cell viability” value is greater than 46 µM. Regarding `Cc1ccc(C)c(OCCCC(C)(C)C(=O)O)c1` [Gemfibrozil], the “IC50 of cell viability” value was greater than 46 µM.

Consider `c1ccc2occc2c1` [2,3-Benzofuran], for which the “IC50 of cell viability” value is greater than 46 µM. Next, `Nc1nc(O)c(Br)c(-c2ccccc2)n1` [BROPIRIMINE]: greater than 46 µM.

For the molecule `O.O=C(O)[C@H]1[C@H]2C[C@H]3c4[nH]c5ccccc5c4CCN3C[C@@H]2CC[C@@H]1O` [Yohimbinic acid monohydrate], the “IC50 of cell viability” value is greater than 46 µM. On to `COc1cc(C(=S)N2CCOCC2)cc(OC)c1OC` [Tritiozina], for which the “IC50 of cell viability” value was greater than 46 µM. Take `CCCC(=O)O[C@]1(C(=O)CCl)C(C)CC2C3CCC4=CC(=O)C=CC4(C)[C@@]3(F)C(=O)CC21C` (some centres not stated) [CLOBETASONE BUTYRATE]: the “IC50 of cell viability” value is greater than 46 µM. Next, `ClC1=CC=C2NC(=O)C\N=C(\C3=CC=CC=C3)C2=C1` [Desmethyldiazepam]: greater than 46 µM.
